Test results: patent US20210275522A1, “PHARMACEUTICAL COMPOSITIONS AND USE THEREOF” (priority 2018, published 2021)
Values joined by “and” are separate entries in the source; they are usually repeats but may differ in a detail not shown here. Equal entries are not always repeated.

Tests used:
Format in all cases: in vivo, SCID mice
[1] = test system: human U2932 DLBCL xenograft; experiment: Subcutaneous human U2932 DLBCL xenograft model, combination with alvocidib (SZ-EF-62-2018); conditions: for antitumor activity (in words) / RTV@ D19 / T/C(%)@D19: Compound 1 50 mg/kg q.d×19 d p.o., alvocidib 2.5 mg/kg q.d×7 d and q.w×2 w i.p.; for RTV@ D19 / T/C(%)@D19: day 19
Description: (§1) SKM-1 human Myelodysplastic Syndromes (MDS) were maintained in vitro as suspension cultures in RPMI 1640 medium supplemented with 20% fetal bovine serum, 100 U/mL penicillin and 100 µg/mL streptomycin. Cells were maintained at 37° C. in an atmosphere of 5% CO2 in air and passaged twice weekly. Tumor cells growing in an exponential growth phase were harvested and counted for tumor inoculation. Each mouse was inoculated subcutaneously at the right flank region with OCI-AML-3 tumor cells (5×10^6) in 0.2 mL of PBS with 50% matrigel, SKM-1 tumor cells (3×10^7) in 0.2 mL of PBS with 50% matrigel, U2932 tumor cells (1×10^7) in 0.2 mL of PBS with 50% matrigel, for tumor development. After tumor cell inoculation, the animals were checked daily for morbidity and mortality. At the time of routine monitoring, the animals were checked for any effects of tumor growth and treatments on normal behavior such as mobility, visual estimation of food and water consumption, body weight gain/loss (body weights were measured twice weekly), eye/hair matting and any other abnormal effect. Death and observed clinical signs were recorded on the basis of the numbers of animals within each subset. The entire procedures of dosing as well as tumor and body weight measurement were conducted in a Laminar Flow Cabinet. Tumor volumes were measured twice weekly in two dimensions using a caliper, and the volume was expressed in mm^3 using the formula: Tumor Volume (mm^3)=0.5a×b^2 Relative tumor volume (RTV) was calculated using the following formula: RTV=Vt/V1 Synergy score was calculated using the following formula described in Clarke R. Issues in experimental design and endpoint analysis in the study of experimental cytotoxic agents in vivo in breast cancer and other models[J]. Breast Cancer Research & Treatment, 1997, 46(2-3):255-278, which is incorporated by reference in its entirety: Synergy score=(([…]); where A: response to treatment A; B: response to treatment B; C: response to vehicle control; AB: combination of treatment A and B. Synergy score>1, synergistic; score=1, additive; score<1, antagonistic. Standard NCI procedures were used to calculate tumor parameters. Percent tumor growth inhibition (% T/C) was calculated as the mean RTV of treated tumors (T) divided by the mean RTV of control tumors (C)×100%. […] In this study, efficacy of combination treatment with Compound 1 and alvocidib was evaluated in human U2932 DLBCL xenograft model (Study No. SZ-EF-62-2018). Dose treatments were started when the mean tumor volume reached 125 mm^3, the dose treatment start day was defined as day 1.

[2] = test system: human OCI-AML-3 AML xenograft; experiment: Subcutaneous human OCI-AML-3 AML xenograft model (SZ-EF-42-2018); conditions: Compound 1 50 mg/kg q.d×15 d p.o., alvocidib 2.5 mg/kg q.d×15 d i.p.; for RTV@ D15 / T/C(%)@ D15: day 15
Description: SKM-1 human Myelodysplastic Syndromes (MDS) were maintained in vitro as suspension cultures in RPMI 1640 medium supplemented with 20% fetal bovine serum, 100 U/mL penicillin and 100 µg/mL streptomycin. Cells were maintained at 37° C. in an atmosphere of 5% CO2 in air and passaged twice weekly. Tumor cells growing in an exponential growth phase were harvested and counted for tumor inoculation. Each mouse was inoculated subcutaneously at the right flank region with OCI-AML-3 tumor cells (5×10^6) in 0.2 mL of PBS with 50% matrigel, SKM-1 tumor cells (3×10^7) in 0.2 mL of PBS with 50% matrigel, U2932 tumor cells (1×10^7) in 0.2 mL of PBS with 50% matrigel, for tumor development. After tumor cell inoculation, the animals were checked daily for morbidity and mortality. At the time of routine monitoring, the animals were checked for any effects of tumor growth and treatments on normal behavior such as mobility, visual estimation of food and water consumption, body weight gain/loss (body weights were measured twice weekly), eye/hair matting and any other abnormal effect. Death and observed clinical signs were recorded on the basis of the numbers of animals within each subset. The entire procedures of dosing as well as tumor and body weight measurement were conducted in a Laminar Flow Cabinet. Tumor volumes were measured twice weekly in two dimensions using a caliper, and the volume was expressed in mm^3 using the formula: Tumor Volume (mm^3)=0.5a×b^2 Relative tumor volume (RTV) was calculated using the following formula: RTV=Vt/V1 Synergy score was calculated using the following formula described in Clarke R. Issues in experimental design and endpoint analysis in the study of experimental cytotoxic agents in vivo in breast cancer and other models[J]. Breast Cancer Research & Treatment, 1997, 46(2-3):255-278, which is incorporated by reference in its entirety: Synergy score=(([…]); where A: response to treatment A; B: response to treatment B; C: response to vehicle control; AB: combination of treatment A and B. Synergy score>1, synergistic; score=1, additive; score<1, antagonistic. Standard NCI procedures were used to calculate tumor parameters. Percent tumor growth inhibition (% T/C) was calculated as the mean RTV of treated tumors (T) divided by the mean RTV of control tumors (C)×100%. […] Alvocidib is a flavonoid alkaloid CDK9 kinase inhibitor, which is the first CDKi under clinical development for the treatment of acute myeloid leukemia. In this study, efficacy of combination treatment with Compound 1 and alvocidib was evaluated in human OCI-AML-3 AML xenograft model (Study No. SZ-EF-42-2018). Dose treatments were started when the mean tumor volume reached 95 mm^3, the dose treatment start day was defined as day 1.

[3] = test system: human SKM-1 MDS xenograft; experiment: Subcutaneous human SKM-1 MDS xenograft model (SZ-EF-59-2018); conditions: Compound 1 50 mg/kg q.d×21 d p.o., alvocidib 2.5 mg/kg q.d×21 d i.p.; for RTV@ D21 / T/C(%)@D21: day 21
Description: as §1, with “SKM-1 MDS” for “U2932 DLBCL”, “SZ-EF-59-2018).” for “SZ-EF-62-2018).”

[4] = test system: human U2932 DLBCL xenograft; experiment: Subcutaneous human U2932 DLBCL xenograft model, combination with dinaciclib (SZ-EF-37-2019); conditions: for antitumor activity (in words) / RTV @ D21 (Mean + SEM) / T/C(%)@D21: Compound 1 30 mg/kg, dinaciclib 20 mg/kg; for mRECIST: SD (stable disease): animals with SD / animals in group; for RTV @ D21 (Mean + SEM) / T/C(%)@D21: day 21
Description: SKM-1 human Myelodysplastic Syndromes (MDS) were maintained in vitro as suspension cultures in RPMI 1640 medium supplemented with 20% fetal bovine serum, 100 U/mL penicillin and 100 µg/mL streptomycin. Cells were maintained at 37° C. in an atmosphere of 5% CO2 in air and passaged twice weekly. Tumor cells growing in an exponential growth phase were harvested and counted for tumor inoculation. Each mouse was inoculated subcutaneously at the right flank region with OCI-AML-3 tumor cells (5×10^6) in 0.2 mL of PBS with 50% matrigel, SKM-1 tumor cells (3×10^7) in 0.2 mL of PBS with 50% matrigel, U2932 tumor cells (1×10^7) in 0.2 mL of PBS with 50% matrigel, for tumor development. Tumor volumes were measured twice weekly in two dimensions using a caliper, and the volume was expressed in mm^3 using the formula: […] Relative tumor volume (RTV) was calculated using the following formula: […] Synergy score was calculated using the following formula described in Clarke R. Issues in experimental design and endpoint analysis in the study of experimental cytotoxic agents in vivo in breast cancer and other models[J]. Breast Cancer Research & Treatment, 1997, 46(2-3):255-278, which is incorporated by reference in its entirety: Synergy score=(([…]); where A: response to treatment A; B: response to treatment B; C: response to vehicle control; AB: combination of treatment A and B. […] Standard NCI procedures were used to calculate tumor parameters. Percent tumor growth inhibition (% T/C) was calculated as the mean RTV of treated tumors (T) divided by the mean RTV of control tumors (C)×100%. […] To confirm the synergistic antitumor effect between Compound 1 and CDK9 inhibitor in DLBCL, we applied combination therapy with Compound 1 plus CDK9 inhibitor dinaciclib in the same human U2932 DLBCL xenograft model, which was established according to embodiment 2.

Compound	antitumor activity (in words) [1]	RTV@ D19 [1]	T/C(%)@D19 [1] [%]	T/C(%)@D19 ([1]; listed as alvocidib) [%]	occurrence of CR or PR ([1]; single arm)	antitumor activity (in words) [2]	RTV@ D15 [2]	T/C(%)@ D15 [2] [%]	antitumor activity (in words) [3]	RTV@ D21 [3]	T/C(%)@D21 [3]	antitumor activity (in words) [4]	mRECIST: SD (stable disease) [4]	RTV @ D21 (Mean + SEM) [4]	T/C(%)@D21 [4] [%]	mRECIST: PD (progressive disease) ([4]; animals with PD / animals in group)
CN1CC[C@H](c2c(O)cc(O)c3c(=O)cc(-c4ccccc4Cl)oc23)[C@H](O)C1 [Alvocidib, alvocidib]	antitumor activity	1.19 ± 0.27	25.2	30.9	no CR or PR	moderate antitumor activity	14.0 ± 1.5	58.8	no antitumor activity	17.2 ± 2.1	78.5%	–	–	–	–	–
O=C(NS(=O)(=O)c1ccc(NC[C@H]2COCCO2)c([N+](=O)[O-])c1)c1ccc(N2CCN(CC3=C(c4ccc(Cl)cc4)CC4(CCC4)CC3)CC2)cc1Oc1cnc2[nH]ccc2c1 [Compound 1, (S)—N-((4-(((1,4-dioxan-2-yl)methyl)amino)-3-nitrophenyl)sulfonyl)-2-((1H-pyrrolo[2,3-b]pyridin-5-yl)oxy)-4-(4-((6-(4-chlorophenyl)spiro[3.5]non-6-en-7-yl)methyl)piperazin-1-yl)benzamide]	antitumor activity	1.46 ± 0.17	30.9	–	–	no antitumor activity	28.6 ± 2.3	120.2	moderate antitumor activity	14.7 ± 1.5	68.3% and 67.3%	moderate antitumor activity	5/5 SD	2.79 ± 0.22	53.26	–
CCc1cnn2c(NCc3ccc[n+]([O-])c3)cc(N3CCCC[C@H]3CCO)nc12 [Dinaciclib, dinaciclib]	–	–	–	–	–	–	–	–	–	–	–	no antitumor activity	3/5	3.74 ± 0.58	71.55	2/5
